≈ marks a conversion by molar mass, not a printed value. Entries after “also recorded” stand apart in the source; their conditions may differ.
Legend:
[1] = Blood serum concentration, disc method; assay type: in vivo, ddY strain mice
Protocol: In this experiment, ddY strain mice (male; body weight 30±2 grams) were used. Sixty mg/kg of the compound of Example 22b were given per os. The blood concentration was calculated from calibration curves obtained by the disc method using Escherichia coli NIHJ strain as tested bacteria and diluting the test compound of mice serum.

[2] = test system: Bacillus subtilis ATCC 6633; assay: Minimum growth inhibiting concentration, Japan Chemotherapeutic Society method; assay type: cell-based; conditions: ATCC6633; Bacillus subtilis ATCC 6633, Gram +; 5% horse blood added agar medium; read-out: Minimum Growth Inhibiting Concn
Protocol: (§1) The Antibacterial activity of the compounds of Examples 14, 13, 22b, 21 and 15 was determined in accordance with the method of Japan Chemotherapeutic Society (cf. Nippon Kagaku Ryoho Gakkai Shi, volume 29, number 1, pages 76 to 79, 1981) and the results are reported in Table 1, which follows. | *5% Horse blood added agar medium for sensitivity measurement being used.

[3] = test system: Streptococcus pyogenes S-23; assay: as above; assay type: cell-based; conditions: S23; Streptococcus pyogenes S-23, Gram +; 5% horse blood added agar medium; read-out: Minimum Growth Inhibiting Concn
Protocol: as §1

[4] = test system: Streptococcus pneumoniae Type I; assay: as above; assay type: cell-based; conditions: Gram +, 5% horse blood added agar medium, read-out: Minimum Growth Inhibiting Concn
Protocol: as §1

Acute toxicity = conditions: mouse, in vivo; oral, groups of ten ddY male mice; read-out: 50% Lethal Doses (LD50)
Protocol: Groups of ten ddY strain male mice (body weights: 20±1 grams) of the test compound were orally administered to determine the LD50. There was […] in which many mice died when the dose was 2000 mg/kg or less.

[5] = test system: Acinetobacter calcoacelicus 54; assay: Minimum growth inhibiting concentration, Japan Chemotherapeutic Society method; assay type: cell-based; conditions: Acinetobacter calcoacelicus 54, Gram -; read-out: Minimum Growth Inhibiting Concn
Protocol: (§2) The Antibacterial activity of the compounds of Examples 14, 13, 22b, 21 and 15 was determined in accordance with the method of Japan Chemotherapeutic Society (cf. Nippon Kagaku Ryoho Gakkai Shi, volume 29, number 1, pages 76 to 79, 1981) and the results are reported in Table 1, which follows.

[6] = test system: Klebsiella pneumoniae K-1966; assay: as above; assay type: cell-based; conditions: K1966; Klebsiella pneumoniae K-1966, Gram -; read-out: Minimum Growth Inhibiting Concn
Protocol: as §2

[7] = test system: Staphylococcus aureus Smith; assay: as above; assay type: cell-based; conditions: Gram +, read-out: Minimum Growth Inhibiting Concn
Protocol: as §2

[8] = test system: Pseudomonas aeruginosa E-2; assay: as above; assay type: cell-based; conditions: E2; Pseudomonas aeruginosa E-2, Gram -; read-out: Minimum Growth Inhibiting Concn
Protocol: as §2

[9] = test system: Listeria monocytogenes RIMD 1205020; assay: as above; assay type: cell-based; conditions: RIMD1205020; Listeria monocytogenes RIMD 1205020, Gram +; read-out: Minimum Growth Inhibiting Concn
Protocol: as §2

[10] = test system: Pseudomonas maltophilia ATCC 13637; assay: as above; assay type: cell-based; conditions: Stenotrophomonas maltophilia, ATCC13637; Pseudomonas maltophilia ATCC 13637, Gram -; read-out: Minimum Growth Inhibiting Concn
Protocol: as §2

Proteus mirabilis 181 = assay: as above; assay type: cell-based; conditions: Proteus mirabilis 181, Gram -; read-out: Minimum Growth Inhibiting Concn
Protocol: as §2

Proteus vulgaris DX-19 = assay: as above; assay type: cell-based; conditions: DX19; Proteus vulgaris DX-19, Gram -; read-out: Minimum Growth Inhibiting Concn
Protocol: as §2

[11] = test system: Micrococcus luteus ATCC 9341; assay: as above; assay type: cell-based; conditions: ATCC9341; Micrococcus luteus ATCC 9341, Gram +; read-out: Minimum Growth Inhibiting Concn
Protocol: as §2

[12] = test system: Alcaligenes faecalis ATCC 8750; assay: as above; assay type: cell-based; conditions: ATCC8750; Alcaligenes faecalis ATCC 8750, Gram -; read-out: Minimum Growth Inhibiting Concn
Protocol: as §2

[13] = test system: Pseudomonas cepacia ATCC 25416; assay: as above; assay type: cell-based; conditions: Burkholderia cepacia, ATCC25416; Pseudomonas cepacia ATCC 25416, Gram -; read-out: Minimum Growth Inhibiting Concn
Protocol: as §2

Escherichia coli KC-14 = assay: as above; assay type: cell-based; conditions: KC14; Escherichia coli KC-14, Gram -; read-out: Minimum Growth Inhibiting Concn
Protocol: as §2

[14] = test system: Staphylococcus aureus 209-PJC; assay: as above; assay type: cell-based; conditions: Gram +, read-out: Minimum Growth Inhibiting Concn
Protocol: as §2

[15] = test system: Escherichia coli NIHJ JC-2; assay: as above; assay type: cell-based; conditions: NIHJJC2; Escherichia coli NIHJ JC-2, Gram -; read-out: Minimum Growth Inhibiting Concn
Protocol: as §2

[16] = test system: Serracia marcescens IFO 3736; assay: as above; assay type: cell-based; conditions: Serracia marcescens IFO 3736, Gram -; read-out: Minimum Growth Inhibiting Concn
Protocol: as §2

[17] = test system: Pseudomonas aeruginosa No. 12; assay: as above; assay type: cell-based; conditions: Pseudomonas aeruginosa No. 12, Gram -; read-out: Minimum Growth Inhibiting Concn
Protocol: as §2

[18] = Excretion into urine and recovery, disc method; assay type: in vivo, ddY strain mice; conditions: 60 mg/kg per os; for Amount excreted into Urine: average ± standard error
Protocol: In the measurement of excretion into urine, ddY strain mice (male; body weights 30±2 grams) were used. Sixty mg/kg of the compound of Example 22b was administered per os and the mice were fed in metabolic cages and their urine was collected.
Therefore, in the quantitative determination, the calibration curve of the compound of Example 21, calculated by the disc method using Escherichia coli NIHJ strain and using the compound dissolved in phosphoric acid buffer (pH 8.0; 1/15M) was used. Table 5 reports the excretion into urine with respect to time, total recovery amount and recovery rate of the compound of Example 22b.

Cc1csc2c(C(=O)O)c(=O)c3cc(F)c(N4CCN(C)CC4)cc3n12 [Example 22b, 7-fluoro-1-methyl-8-(4-methyl-1-piperazinyl)-5-oxo-5H-thiazolo(3,2-a)-quinoline-4-carboxylic acid]
concentration at 0.25 h ([1]; mouse, serum, po, 0.25 hours, 60 mg/kg per os, average ± standard error): 3400 ± 820 ng/mL | concentration at 0.5 h ([1]; mouse, serum, po, 0.5 hours, 60 mg/kg per os, average ± standard error): 5400 ± 320 ng/mL | concentration at 1 h ([1]; mouse, serum, po, 1 hour, 60 mg/kg per os, average ± standard error): 4200 ± 700 ng/mL | concentration at 2 h ([1]; mouse, serum, po, 2 hours, 60 mg/kg per os, average ± standard error): 3300 ± 370 ng/mL | concentration at 4 h ([1]; mouse, serum, po, 4 hours, 60 mg/kg per os, average ± standard error): 2500 ± 230 ng/mL | blood concentration (in words) ([1]; oral, mice): promptly gave high and sustained blood concentrations when administered orally | MIC [2]: 0.0008 µg/mL (≈ 0.00213 µM) | MIC [3]: 0.2 µg/mL (≈ 0.533 µM) | MIC [4]: 0.39 µg/mL (≈ 1.04 µM) | LD50 (Acute toxicity): > 2000 mg/kg | MIC [5]: 0.2 µg/mL (≈ 0.533 µM) | MIC [6]: 0.05 µg/mL (≈ 0.133 µM) | MIC [7]: 0.053 µg/mL (≈ 0.141 µM) | MIC [8]: 0.39 µg/mL (≈ 1.04 µM) | MIC [9]: 0.2 µg/mL (≈ 0.533 µM) | MIC [10]: 0.025 µg/mL (≈ 0.0666 µM) | MIC (Proteus mirabilis 181): 0.2 µg/mL (≈ 0.533 µM) | MIC (Proteus vulgaris DX-19): 0.1 µg/mL (≈ 0.266 µM) | MIC [11]: 0.78 µg/mL (≈ 2.08 µM) | MIC [12]: 0.78 µg/mL (≈ 2.08 µM) | MIC [13]: 0.2 µg/mL (≈ 0.533 µM) | MIC (Escherichia coli KC-14): 0.013 µg/mL (≈ 0.0346 µM) | MIC [14]: 0.013 µg/mL (≈ 0.0346 µM) | MIC [15]: 0.025 µg/mL (≈ 0.0666 µM) | MIC [16]: 0.39 µg/mL (≈ 1.04 µM) | MIC [17]: 0.78 µg/mL (≈ 2.08 µM) | Amount excreted into Urine ([18]; 0-3 hrs): 268.1 ± 84.4 µg | Total Recovery in urine ([18]; 0-24 hrs): 813.9 µg | excretion into urine (in words) ([18]; mice): excreted into urine almost completely; also recorded: excreted into urine promptly and in high concentration which is continued and exhibits high recovery rate | metabolism (in words) ([18]; mice): metabolized to the compound of Example 21 | Amount excreted into Urine ([18]; 3-6 hrs): 108.3 ± 33.1 µg | Amount excreted into Urine ([18]; 6-24 hrs): 437.5 ± 21.8 µg

From US4659734A, “Olinecarboxylic acid derivatives” (Nippon Shinyaku Co., Ltd., priority 1983, dated 1987)
